Results on 25 compounds are retold here after patent US9884818B2, “Sulphamoylpyrrolamide derivatives and the use thereof as medicaments for the treatment of hepatitis B” (Janssen Sciences Ireland UC, priority 2013, dated 2018).

Data set [1] has as its system HBV. The experiment in a line: Anti-HBV activity, HepG2.117 inducibly HBV producing cell line (Tet-off), intracellular HBV DNA by realtime PCR. The class given is cell-based. The conditions noted are these: Hepatitis B virus, HepG2.117, 72 h, HepG2.117 cells, 3 days of treatment, intracellular HBV DNA; read-out: HepG2 117 EC50.
Data set [2] relates to HBV. The experiment in a line: Anti-HBV activity, HepG2.2.15 stable transfected cell line, HBV DNA from secreted virions by realtime PCR. The format is cell-based. The note with it: Hepatitis B virus, HepG2.2.15, 144 h, HepG2.2.15 cells, 6 days of treatment, HBV DNA from secreted virions; read-out: HepG2 2.15 EC50.
Data set [3] in a line: Cytotoxicity in HepG2 cells, Resazurin viability assay. The note with it: human, HepG2 cells, HepG2 4 days CC50 (μM), incubated for 4 days, Resazurin assay.

Usually EC50 stands for the concentration giving half of the maximal effect. The CC50 is the concentration giving 50% cytotoxicity. Lower therefore signals harm at low concentration. Regarding `Cn1cc(S(=O)(=O)NC(C)(C)CCO)cc1C(=O)Nc1ccc(F)c(C#N)c1` [Compound 296, N-(3-cyano-4-fluoro-phenyl)-4-[(3-hydroxy-1,1-dimethyl-propyl)sulfamoyl]-1-methyl-pyrrole-2-carboxamide], the 50% effective concentration (EC50) stood at 230 nM in the data set on HBV [1] and 100 nM in the data set on HBV [2]. For the same compound, in data set [3], the CC50 at 4 days was > 25 µM.
For `C[C@H](CO)NS(=O)(=O)c1cc(C(=O)Nc2ccc(F)c(F)c2)n(C)c1` [Compound 24, N-(3,4-difluorophenyl)-4-[[(1R)-2-hydroxy-1-methyl-ethyl]sulfamoyl]-1-methyl-pyrrole-2-carboxamide], the figures for the EC50 in the data set with HBV [1] and in the data set on HBV [2] were 300 nM and 200 nM, respectively. The CC50 at 4 days in data set [3] was > 25 µM.
As to `Cn1cc(S(=O)(=O)NC(C)(C)CF)cc1C(=O)Nc1cc(F)c(F)c(Cl)c1` [Compound 207, N-(3-chloro-4,5-difluoro-phenyl)-4-[(2-fluoro-1,1-dimethyl-ethyl)sulfamoyl]-1-methyl-pyrrole-2-carboxamide], the EC50 in the data set with HBV [1] was found to be 140 nM; in the data set with HBV [2] it was 50 nM. For the same compound, the CC50 at 4 days in data set [3] was > 25 µM.
For `Cc1c(S(=O)(=O)N[C@H](C)C(F)(F)F)cn(C)c1C(=O)Nc1ccc(F)c(Cl)c1` [Compound 145, N-(3-Chloro-4-fluorophenyl)-1,3-dimethyl-4-{[(1R)-2,2,2-trifluoro-1-methylethyl]sulfamoyl}-1H-pyrrole-2-carboxamide] the same measures were 30 nM, 40 nM and > 25 µM.
For `Cc1cc(NC(=O)c2cc(S(=O)(=O)NC3(C)COC3)cn2C)cc(F)c1F` [Compound 35, N-(3,4-difluoro-5-methyl-phenyl)-1-methyl-4-[(3-methyloxetan-3-yl)-sulfamoyl]pyrrole-2-carboxamide] the same measures were 20 nM, 30 nM and > 25 µM.
In the same order, the values of `C[C@@H](NS(=O)(=O)c1cc(C(=O)Nc2c(F)ccc(Cl)c2F)n(C)c1)C(F)(F)F` [Compound 204, N-(3-Chloro-2,6-difluorophenyl)-1-methyl-4-{[(1R)-2,2,2-trifluoro-1-methylethyl]sulfamoyl}-1H-pyrrole-2-carboxamide] are 620 nM, 650 nM and > 25 µM.
As to `Cc1cc(NC(=O)c2cc(S(=O)(=O)N[C@H]3CCOC3)cn2C)ccc1F` [Compound 4, N-(4-fluoro-3-methyl-phenyl)-1-methyl-4-[[(3S)-tetrahydrofuran-3-yl]-sulfamoyl]pyrrole-2-carboxamide], the EC50 was 60 nM with HBV [1] and 100 nM in the data set with HBV [2]. Further, the CC50 at 4 days in data set [3] is > 25 µM.
In the same order, the values of `CC(C)NS(=O)(=O)c1cn(C)c(C(=O)Nc2ccc(F)c(F)c2F)c1F` [Compound 233, 3-Fluoro-1-methyl-4-[(1-methylethyl)sulfamoyl]-N-(2,3,4-trifluorophenyl)-1H-pyrrole-2-carboxamide] are 160 nM, 90 nM and > 25 µM.
For `C[C@@H](NS(=O)(=O)c1cc(C(=O)Nc2cccc(C(F)(F)F)c2)n(C)c1)C(F)(F)F` [Compound 122, 1-methyl-4-[[(1R)-2,2,2-trifluoro-1-methyl-ethyl]sulfamoyl]-N-[3-(trifluoromethyl)phenyl]pyrrole-2-carboxamide], the EC50 in the data set on HBV [1] is > 1000 nM; in the data set on HBV [2], 70 nM. In data set [3], this compound came in with a CC50 at 4 days of 13.1 µM.
For `Cn1cc(S(=O)(=O)NC2(C(F)(F)F)CCC2)cc1C(=O)Nc1ccc(F)c(C#N)c1` [Compound 241, N-(3-Cyano-4-fluorophenyl)-1-methyl-4-{[1-(trifluoromethyl)cyclo-butyl]sulfamoyl}-1H-pyrrole-2-carboxamide] the same measures were 10 nM, 10 nM and > 25 µM.
For `C[C@@H](NS(=O)(=O)c1cc(C(=O)Nc2cc(F)c(F)c(Br)c2)n(C)c1)C(F)(F)F` [Compound 205, N-(3-Bromo-4,5-difluorophenyl)-1-methyl-4-{[(1R)-2,2,2-trifluoro-1-methylethyl]sulfamoyl}-1H-pyrrole-2-carboxamide] the same measures were 30 nM, 80 nM and 13 µM.
In the same order, the values of `Cn1cc(S(=O)(=O)NC2(C(F)(F)F)CCC2)cc1C(=O)Nc1ccc(F)c(Cl)c1F` [Compound 263, N-(3-chloro-2,4-difluoro-phenyl)-1-methyl-4-{[1-(trifluoromethyl)-cyclobutyl]sulfamoyl}-1H-pyrrole-2-carboxamide] are 8 nM, 5 nM and > 25 µM.
With `Cc1c(S(=O)(=O)N[C@H](C)C(F)(F)F)cc(C(=O)Nc2ccc(F)c(C#N)c2)n1C` [Compound 140, N-(3-Cyano-4-fluorophenyl)-1,5-dimethyl-4-{[(1R)-2,2,2-trifluoro-1-methylethyl]sulfamoyl}-1H-pyrrole-2-carboxamide], the EC50 in the data set on HBV [1] is 60 nM; in the data set with HBV [2] it was 100 nM. Moreover, the CC50 at 4 days in data set [3] is > 25 µM.
In the same order, the values of `C[C@@H](NS(=O)(=O)c1cn(C)c(C(=O)Nc2ccc(F)c(Cl)c2)c1Cl)C(F)(F)F` [Compound 222, 3-Chloro-N-(3-chloro-4-fluorophenyl)-1-methyl-4-{[(1R)-2,2,2-trifluoro-1-methylethyl]sulfamoyl}-1H-pyrrole-2-carboxamide] are 9 nM, 4 nM and > 25 µM.
For `CC(CC(F)(F)F)NS(=O)(=O)c1cc(C(=O)Nc2ccc(F)c(C#N)c2)n(C)c1` (stereo not drawn) [Compound 238, N-(3-Cyano-4-fluorophenyl)-1-methyl-4-[(3,3,3-trifluoro-1-methyl-propyl)sulfamoyl]-1H-pyrrole-2-carboxamide], the figures for the concentration giving a half-maximal response (EC50) in the data set on HBV [1] and with HBV [2] were 110 nM and 100 nM, respectively. In addition, in data set [3], the CC50 at 4 days is > 25 µM.
For `Cn1cc(S(=O)(=O)NC2(C)COC2)cc1C(=O)Nc1cc(F)c(F)c(Cl)c1` [Compound 59, N-(3-chloro-4,5-difluoro-phenyl)-1-methyl-4-[(3-methyloxetan-3-yl)-sulfamoyl]pyrrole-2-carboxamide] the same measures were 30 nM, 30 nM and > 25 µM.
For `C[C@@H](NS(=O)(=O)c1cc(C(=O)Nc2ccc(F)c(F)c2)n(C)c1)C(F)(F)F` [Compound 92, N-(3,4-Difluorophenyl)-1-methyl-4-{[(1R)-2,2,2-trifluoro-1-methylethyl]-sulfamoyl}-1H-pyrrole-2-carboxamide] the same measures were 30 nM, 40 nM and > 25 µM.
For the compound `C[C@@H](NS(=O)(=O)c1cn(C)c(C(=O)Nc2ccc(F)c(Cl)c2Cl)c1Cl)C(F)(F)F` [Compound 277, 3-chloro-N-(2,3-dichloro-4-fluoro-phenyl)-1-methyl-4-[[(1R)-2,2,2-trifluoro-1-methyl-ethyl]sulfamoyl]pyrrole-2-carboxamide], the figures for the EC50 in the data set with HBV [1] and in the data set with HBV [2] were 40 nM and 30 nM, respectively. The CC50 at 4 days in data set [3] is > 25 µM.
In the same order, the values of `Cn1cc(S(=O)(=O)NC(C)(C)C)c(F)c1C(=O)Nc1ccc(F)c(F)c1` [Compound 211, 4-(tert-Butylsulfamoyl)-N-(3,4-difluorophenyl)-3-fluoro-1-methyl-1H-pyrrole-2-carboxamide] are 40 nM, 40 nM and > 25 µM.
In the case of `Cc1cc(NC(=O)c2cc(S(=O)(=O)NCC3(C)COC3)cn2C)ccc1F` [Compound 7, N-(4-fluoro-3-methyl-phenyl)-1-methyl-4-[(3-methyloxetan-3-yl)methylsulfamoyl]pyrrole-2-carboxamide], the EC50 in the data set on HBV [1] came out at 100 nM; with HBV [2] it was 120 nM. Further, in data set [3], the CC50 at 4 days is > 25 µM.
In the same order, the values of `Cn1cc(S(=O)(=O)NC(C)(C)C(F)(F)F)cc1C(=O)Nc1cc(Cl)c(F)c(Cl)c1` [Compound 163, N-(3,5-Dichloro-4-fluorophenyl)-1-methyl-4-[(2,2,2-trifluoro-1,1-dimethylethyl)sulfamoyl]-1H-pyrrole-2-carboxamide] are 110 nM, 180 nM and 14.3 µM.
For `CC[C@@H](NS(=O)(=O)c1cn(C)c(C(=O)Nc2ccc(F)c(C#N)c2)c1F)C(F)(F)F` [Compound 288, N-(3-cyano-4-fluoro-phenyl)-3-fluoro-1-methyl-4-[[(1R)-1-(trifluoro-methyl)propyl]sulfamoyl]pyrrole-2-carboxamide] the same measures were 10 nM, 7 nM and > 25 µM.
In the same order, the values of `Cc1cc(NC(=O)c2cc(S(=O)(=O)N[C@H](C)CS(C)(=O)=O)cn2C)ccc1F` [Compound 97, N-(4-Fluoro-3-methylphenyl)-1-methyl-4-{[(1R)-1-methyl-2-(methyl-sulfonyl)ethyl]sulfamoyl}-1H-pyrrole-2-carboxamide] are 30 nM, 30 nM and > 25 µM.
For the compound `CC(C)NS(=O)(=O)c1cc(C(=O)Nc2ccc(F)c(C(F)(F)F)c2)n(C)c1` [Compound 44, N-[4-fluoro-3-(trifluoromethyl)phenyl]-4-(isopropylsulfamoyl)-1-methyl-pyrrole-2-carboxamide], the figures for the EC50 in the data set on HBV [1] and in the data set on HBV [2] were 260 nM and 370 nM, respectively. In addition, the CC50 at 4 days in data set [3] was > 25 µM.
For the compound `CC[C@@H](C)NS(=O)(=O)c1cc(C(=O)Nc2ccc(F)c(C)c2)n(C)c1` [Compound 6, N-(4-fluoro-3-methyl-phenyl)-1-methyl-4-[[(1R)-1-methylpropyl]-sulfamoyl]pyrrole-2-carboxamide], the half-maximal effective concentration (EC50) in the data set on HBV [1] and in the data set with HBV [2] was 20 nM each time. Besides, the CC50 at 4 days in data set [3] was > 25 µM.
